# According to patent US20100267561A1, “HERBICIDAL PYRIDAZINONE DERIVATIVES” (priority 2007, published 2010):
# Assays:
# Assay in all cases: Test B pre-/postemergence plant response
# Format in all cases: in vivo
# Details in all cases: Preemergence
# [1] = tested on: bermudagrass (Cynodon dactylon)
# Outline: (§1)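 Seeds were sown and sprayed preemergence, while plants at 2 to 18 cm (1- to 4-leaf stage) got postemergence sprays. Compounds were formulated in a non-phytotoxic solvent mixture with surfactant. After 13 to 15 days in a greenhouse, injury was rated visually against untreated controls, 0 (no effect) to 100 (complete control).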
# [2] = tested on: blackgrass (Alopecurus myosuroides)
# Outline: as §1
# [3] = tested on: catchweed bedstraw (Galium aparine)
# Outline: as §1
# [4] = tested on: common (oilseed) sunflower (Helianthus annuus)
# Outline: as §1
# corn (Zea mays) = tested on: corn (Zea mays)
# Outline: as §1
# [5] = tested on: downy bromegrass (Bromus tectorum)
# Outline: as §1
# [6] = tested on: giant foxtail (Setaria faberii)
# Outline: as §1
# [7] = tested on: green foxtail (Setaria viridis)
# Outline: as §1
# [8] = tested on: lambsquarters (Chenopodium album)
# Outline: as §1
# [9] = tested on: large crabgrass (Digitaria sanguinalis)
# Outline: as §1
# [10] = tested on: morningglory (Ipomoea coccinea)
# Outline: as §1
# [11] = tested on: velvetleaf (Abutilon theophrasti)
# Outline: as §1
# [12] = tested on: wheat (Triticum aestivum)
# Outline: as §1
# wild oat (Avena fatua) = tested on: wild oat (Avena fatua)
# Outline: as §1
smiles,measurement,setting,value
"Cc1cn(-c2ccc(Cl)cc2)nc1-c1c(O)cnn(C)c1=O [Compound 30, 4-[1-(4-chlorophenyl)-4-methyl-1H-pyrazol-3-yl]-5-hydroxy-2-methyl-3(2H)-pyridazinone]",pest or weed control at 16 g/ha,"[1]; Cynodon dactylon, pre-emergence, 16 g ai/ha, scale 0 to 100 (0 no effect, 100 complete control), read-out: Plant response rating, Bermudagrass",90%
same,pest or weed control at 31 g/ha,"[1]; Cynodon dactylon, pre-emergence, 31 g ai/ha, 0 to 100 scale, 0 no effect, 100 complete control, read-out: Plant response rating, Bermudagrass",100%
same,pest or weed control at 62 g/ha,"[1]; Cynodon dactylon, pre-emergence, 62 g ai/ha, scale 0 to 100, read-out: Plant response rating, Bermudagrass",100%
same,Bermudagrass plant response rating,"[1]; 8 g ai/ha, scale 0 to 100 (0 no effect, 100 complete control)",60
same,pest or weed control at 16 g/ha,"[2]; Alopecurus myosuroides, pre-emergence, 16 g ai/ha, scale 0 to 100 (0 no effect, 100 complete control), read-out: Plant response rating, Blackgrass",60%
same,pest or weed control at 31 g/ha,"[2]; Alopecurus myosuroides, pre-emergence, 31 g ai/ha, 0 to 100 scale, 0 no effect, 100 complete control, read-out: Plant response rating, Blackgrass",100%
same,pest or weed control at 62 g/ha,"[2]; Alopecurus myosuroides, pre-emergence, 62 g ai/ha, scale 0 to 100, read-out: Plant response rating, Blackgrass",100%
same,Blackgrass plant response rating,"[2]; 8 g ai/ha, scale 0 to 100",0
same,pest or weed control at 16 g/ha,"[3]; Galium aparine, pre-emergence, 16 g ai/ha, scale 0 to 100 (0 no effect, 100 complete control), read-out: Plant response rating, Galium",0%
same,pest or weed control at 31 g/ha,"[3]; Galium aparine, pre-emergence, 31 g ai/ha, 0 to 100 scale, 0 no effect, 100 complete control, read-out: Plant response rating, Galium",0%
same,pest or weed control at 62 g/ha,"[3]; Galium aparine, pre-emergence, 62 g ai/ha, scale 0 to 100, read-out: Plant response rating, Galium",0%
same,Galium plant response rating,"[3]; 8 g ai/ha, scale 0 to 100",0
same,pest or weed control at 16 g/ha,"[4]; Helianthus annuus, pre-emergence, 16 g ai/ha, scale 0 to 100 (0 no effect, 100 complete control), read-out: Plant response rating, Sunflower",0%
same,pest or weed control at 31 g/ha,"[4]; Helianthus annuus, pre-emergence, 31 g ai/ha, 0 to 100 scale, 0 no effect, 100 complete control, read-out: Plant response rating, Sunflower",0%
same,pest or weed control at 62 g/ha,"[4]; Helianthus annuus, pre-emergence, 62 g ai/ha, scale 0 to 100, read-out: Plant response rating, Sunflower",0%
same,Sunflower plant response rating,"[4]; 8 g ai/ha, scale 0 to 100",0
same,Corn plant response rating,"corn (Zea mays); 8 g ai/ha, scale 0 to 100",0
same,"Corn plant response rating (crop injury, 0 = no effect, 100 = complete kill) at 16 g/ha","corn (Zea mays); Zea mays, pre-emergence, 16 g ai/ha, scale 0 to 100 (0 no effect, 100 complete control)",5%
same,"Corn plant response rating (crop injury, 0 = no effect, 100 = complete kill) at 31 g/ha","corn (Zea mays); Zea mays, pre-emergence, 31 g ai/ha, 0 to 100 scale, 0 no effect, 100 complete control",5%
same,"Corn plant response rating (crop injury, 0 = no effect, 100 = complete kill) at 62 g/ha","corn (Zea mays); Zea mays, pre-emergence, 62 g ai/ha, scale 0 to 100",5%
same,pest or weed control at 16 g/ha,"[5]; Bromus tectorum, pre-emergence, 16 g ai/ha, scale 0 to 100 (0 no effect, 100 complete control), read-out: Plant response rating, Bromegrass, Downy",10%
same,pest or weed control at 31 g/ha,"[5]; Bromus tectorum, pre-emergence, 31 g ai/ha, 0 to 100 scale, 0 no effect, 100 complete control, read-out: Plant response rating, Bromegrass, Downy",10%
same,pest or weed control at 62 g/ha,"[5]; Bromus tectorum, pre-emergence, 62 g ai/ha, scale 0 to 100, read-out: Plant response rating, Bromegrass, Downy",85%
same,"Bromegrass, Downy plant response rating","[5]; 8 g ai/ha, scale 0 to 100",0
same,"Foxtail, Giant plant response rating","[6]; 8 g ai/ha, scale 0 to 100",60
same,pest or weed control at 16 g/ha,"[6]; Setaria faberi, pre-emergence, 16 g ai/ha, scale 0 to 100 (0 no effect, 100 complete control), read-out: Plant response rating, Foxtail, Giant",98%
same,pest or weed control at 31 g/ha,"[6]; Setaria faberi, pre-emergence, 31 g ai/ha, 0 to 100 scale, 0 no effect, 100 complete control, read-out: Plant response rating, Foxtail, Giant",100%
same,pest or weed control at 62 g/ha,"[6]; Setaria faberi, pre-emergence, 62 g ai/ha, scale 0 to 100, read-out: Plant response rating, Foxtail, Giant",100%
same,"Foxtail, Green plant response rating","[7]; 8 g ai/ha, scale 0 to 100",0
same,pest or weed control at 16 g/ha,"[7]; Setaria viridis, pre-emergence, 16 g ai/ha, scale 0 to 100 (0 no effect, 100 complete control), read-out: Plant response rating, Foxtail, Green",0%
same,pest or weed control at 31 g/ha,"[7]; Setaria viridis, pre-emergence, 31 g ai/ha, 0 to 100 scale, 0 no effect, 100 complete control, read-out: Plant response rating, Foxtail, Green",100%
same,pest or weed control at 62 g/ha,"[7]; Setaria viridis, pre-emergence, 62 g ai/ha, scale 0 to 100, read-out: Plant response rating, Foxtail, Green",100%
same,pest or weed control at 16 g/ha,"[8]; Chenopodium album, pre-emergence, 16 g ai/ha, scale 0 to 100 (0 no effect, 100 complete control), read-out: Plant response rating, Lambsquarters",0%
same,pest or weed control at 31 g/ha,"[8]; Chenopodium album, pre-emergence, 31 g ai/ha, 0 to 100 scale, 0 no effect, 100 complete control, read-out: Plant response rating, Lambsquarters",0%
same,pest or weed control at 62 g/ha,"[8]; Chenopodium album, pre-emergence, 62 g ai/ha, scale 0 to 100, read-out: Plant response rating, Lambsquarters",0%
same,Lambsquarters plant response rating,"[8]; 8 g ai/ha, scale 0 to 100",0
same,pest or weed control at 16 g/ha,"[9]; Digitaria sanguinalis, pre-emergence, 16 g ai/ha, scale 0 to 100 (0 no effect, 100 complete control), read-out: Plant response rating, Crabgrass, Large",90%
same,pest or weed control at 31 g/ha,"[9]; Digitaria sanguinalis, pre-emergence, 31 g ai/ha, 0 to 100 scale, 0 no effect, 100 complete control, read-out: Plant response rating, Crabgrass, Large",100%
same,pest or weed control at 62 g/ha,"[9]; Digitaria sanguinalis, pre-emergence, 62 g ai/ha, scale 0 to 100, read-out: Plant response rating, Crabgrass, Large",100%
same,"Crabgrass, Large plant response rating","[9]; 8 g ai/ha, scale 0 to 100",80
same,pest or weed control at 16 g/ha,"[10]; Ipomoea, pre-emergence, 16 g ai/ha, scale 0 to 100 (0 no effect, 100 complete control), read-out: Plant response rating, Morningglory",0%
same,pest or weed control at 31 g/ha,"[10]; Ipomoea, pre-emergence, 31 g ai/ha, 0 to 100 scale, 0 no effect, 100 complete control, read-out: Plant response rating, Morningglory",0%
same,Morningglory plant response rating,"[10]; 8 g ai/ha, scale 0 to 100",0
same,pest or weed control at 16 g/ha,"[11]; Abutilon theophrasti, pre-emergence, 16 g ai/ha, scale 0 to 100 (0 no effect, 100 complete control), read-out: Plant response rating, Velvetleaf",0%
same,pest or weed control at 31 g/ha,"[11]; Abutilon theophrasti, pre-emergence, 31 g ai/ha, 0 to 100 scale, 0 no effect, 100 complete control, read-out: Plant response rating, Velvetleaf",0%
same,pest or weed control at 62 g/ha,"[11]; Abutilon theophrasti, pre-emergence, 62 g ai/ha, scale 0 to 100, read-out: Plant response rating, Velvetleaf",0%
same,Velvetleaf plant response rating,"[11]; 8 g ai/ha, scale 0 to 100",0
same,Wheat plant response rating,"[12]; 8 g ai/ha, scale 0 to 100",0
same,plant injury at 16 g/ha,"[12]; Triticum aestivum, pre-emergence, 16 g ai/ha, scale 0 to 100 (0 no effect, 100 complete control), read-out: Plant response rating, Wheat",0%
same,plant injury at 31 g/ha,"[12]; Triticum aestivum, pre-emergence, 31 g ai/ha, 0 to 100 scale, 0 no effect, 100 complete control, read-out: Plant response rating, Wheat",0%
same,plant injury at 62 g/ha,"[12]; Triticum aestivum, pre-emergence, 62 g ai/ha, scale 0 to 100, read-out: Plant response rating, Wheat",10%
same,pest or weed control at 16 g/ha,"wild oat (Avena fatua); Avena fatua, pre-emergence, 16 g ai/ha, scale 0 to 100 (0 no effect, 100 complete control), read-out: Plant response rating, Oat, Wild",50%
same,pest or weed control at 31 g/ha,"wild oat (Avena fatua); Avena fatua, pre-emergence, 31 g ai/ha, 0 to 100 scale, 0 no effect, 100 complete control, read-out: Plant response rating, Oat, Wild",50%
same,pest or weed control at 62 g/ha,"wild oat (Avena fatua); Avena fatua, pre-emergence, 62 g ai/ha, scale 0 to 100, read-out: Plant response rating, Oat, Wild",80%
same,"Oat, Wild plant response rating","wild oat (Avena fatua); 8 g ai/ha, scale 0 to 100",50
